The source of these data is paper PMC11466185, “Mechanisms and efficacy of small molecule latency-promoting agents to inhibit HIV reactivation ex vivo” (JCI Insight, 2024).

Data set [1] relates to HIV transcripts (TAR, LLTR, Pol, PolyA, TatRev). The data set can be described thus: Latency reversal assay: cell-associated HIV transcripts (RT-ddPCR) 24 hours after anti-CD3/CD28 activation of PBMCs from ART-suppressed PWH. In kind it is cell-based. Further details: Elongated (LLTR) HIV transcripts, median relative to activated DMSO, initial screening / Midtranscribed (Pol) HIV transcripts, median relative to activated DMSO, initial screening / Multiply spliced (TatRev) HIV transcripts, median relative to activated DMSO, initial screening: concentration or dose not given beside the values. Conditions: for Effect on HIV transcripts in the initial drug screen (in words) / Multiply spliced (TatRev) HIV transcripts, median relative to activated DMSO, initial screening / Completed (PolyA) HIV transcripts, median relative to activated DMSO, initial screening: initial screening, 2 participants; for Effect on HIV transcripts in the initial drug screen (in words): 24 hours after activation; for Multiply spliced (TatRev) HIV transcripts, median relative to activated DMSO, initial screening / Multiply spliced HIV transcripts (TatRev) (Fig 1B) / Completed (PolyA) HIV transcripts, median relative to activated DMSO, initial screening: 24 hours; for Multiply spliced (TatRev) HIV transcripts, median relative to activated DMSO, initial screening: Figure 1B; for Multiply spliced (TatRev) HIV transcripts, median relative to activated DMSO, initial screening / Completed (PolyA) HIV transcripts, median relative to activated DMSO, initial screening: Supplemental Figure 2; for mrna remaining at 0.1 µM: 100nM. Here is the method: We selected 26 small molecules targeting pathways implicated in HIV transcription or the blocks to HIV transcription underlying latency (Supplemental Table 1). […] Initial screening of all drugs was performed in freshly isolated PBMCs from 2 ART-suppressed individuals (Figure 1 and Supplemental Figure 2). PBMCs were cultured in the presence of individual drugs in DMSO or DMSO alone as a control, subsequently activated (anti-CD3/CD28), and harvested after 24 hours. […] The progression through different blocks to HIV transcription was quantified by measuring the levels of initiated (TAR), 5′ elongated (LLTR), midtranscribed/unspliced (Pol), completed (PolyA), and multiply spliced (TatRev) HIV transcripts. The levels of those HIV transcripts were normalized to 1 μg of total cellular RNA (to normalize for the effect of the drug on global cellular transcription) and expressed as a percentage of the activated DMSO control.
(§1) Figure 1 Screening of candidate LPAs by measuring the change in multiply spliced HIV transcripts after activation. Each drug was tested in PBMCs from 2 ART-suppressed study participants (denoted in the legend by varying symbol shapes). PBMCs were aliquoted into wells at 6 × 10^6 cells/well. After activation, the cells were cultured with antiretrovirals in the presence of individual drugs in DMSO or DMSO alone as control. All conditions were tested in the presence of CD3/28 T cell–activating beads, except for the unactivated DMSO condition. (A) After 24 hours, the viability was measured by trypan blue staining and then normalized to the levels of the activated DMSO (% of activated DMSO). Bars indicate medians. (B) Total cellular RNA was extracted, and the levels of multiply spliced HIV transcripts (TatRev) were measured by RT-ddPCR, normalized to 1 μg of total cellular RNA, and expressed as a percentage of the activated DMSO control (% of activated DMSO). RT-dd, reverse transcription digital droplet; vRNA, viral RNA; HAT, histone acetyltransferase.
The ability of our candidate LPAs to inhibit HIV transcriptional progression after activation was examined in PBMCs from a minimum of 7 PWH per drug tested (Figure 3). PBMCs were cultured in the presence of individual drugs in DMSO or in DMSO alone as a control, subsequently activated (anti-CD3/CD28), and harvested after 24 hours.
Each drug was tested in PBMCs from 7 ART-suppressed study participants. The PBMCs were aliquoted into wells at 6 × 10^6 cells/well. After activation, the cells were cultured with antiretrovirals in the presence of individual drugs in DMSO or DMSO alone as control. All conditions were tested in the presence of CD3/28 T cell–activating beads, except for the unactivated DMSO condition. After 24 hours, total RNA was extracted, and the progression through different stages of HIV transcription was quantified by measuring the levels of initiated (TAR), 5′ elongated (LLTR), midtranscribed/unspliced (Pol), completed (PolyA), and multiply spliced (TatRev) HIV transcripts. (A) The levels of all HIV transcripts were normalized to 1 μg of total cellular RNA and expressed as a percentage of the activated DMSO control (% of activated DMSO). Medians are shown as well as the individual values per study participant in different colors. (B–D) The effect of each drug on HIV transcriptional progression after activation was analyzed by the ratio of one HIV transcript to another. Ratios are independent of HIV infection frequency or normalization to cell numbers. Shown are the proportion of (B) all HIV transcripts that were elongated (LLTR/TAR), (C) elongated HIV transcripts that were completed spliced (PolyA/LLTR), and (D) completed transcripts that were multiply spliced (TatRev/PolyA).

A further data set relates to PBMCs. The data set can be described thus: Cell viability by trypan blue staining after 24 hours. In kind it is cell-based, human. The method, then:
as §1
For quantification of cell-associated HIV transcripts, PBMCs were harvested either after 24 hours or after 6 days. The cell viabilities were measured by trypan blue staining; then the cells were pelleted by centrifuging at 300g for 6 minutes and stored at –80°C. For quantification of virion-associated HIV RNA, cell culture supernatant was collected from 6 × 10^6 PBMCs that were treated and activated for 6 days as described above. Residual cells and cellular debris were subsequently removed from the supernatant by differential centrifugation (300g for 6 minutes, then 20,000g for 10 minutes), and the supernatant was stored at –80°C.

Setting [2] is: 10μM, 24 h after αCD3/28 activation, each column one participant.

Where “and” joins values, the source holds several entries; their conditions need not be identical. Equal entries are not always repeated. Where two headings read alike, the source gives them in different places.

Take `Nc1nc2nn[nH]c2c(=O)[nH]1` [8-azaguanine]: in data set [1], the “Effect on HIV transcripts in the initial drug screen (in words)” value (shortened to “Effect on HIV transcripts”) is given as “did not observe decreases” and the “Multiply spliced (TatRev) HIV transcripts, median relative to activated DMSO, initial screening” value is listed as “increase in multiply spliced transcripts”. The “Viability (Fig 1A)” value in the data set on PBMCs (study participant 150a) is on record as 106.88 % of activated DMSO. The “Viability (Fig 1A)” value in the data set with PBMCs (study participant 152) is 98.65 % of activated DMSO.

Regarding `CCCCCCCCCCCCCCC=C(C(=O)OCC)C(=O)OCC` [SPV-106], in data set [1] (setting [2]), the “LLTR HIV transcripts (DMSO+αCD3/28 = 100)” value is 123.81 and 93.28; the “Pol HIV transcripts (DMSO+αCD3/28 = 100)” value is 71.05 and 12.29; the “PolyA HIV transcripts (DMSO+αCD3/28 = 100)” value is 64.82 and 38.96; the “TatRev HIV transcripts (DMSO+αCD3/28 = 100)” value was 60.34 and 263.16. In data set [1], the “Effect on HIV transcripts” value is “did not observe any reduction”. Further, the “Multiply spliced HIV transcripts (TatRev) (Fig 1B)” value in data set [1] (study participant 150a) was 60.34 % of activated DMSO. Besides, the “Multiply spliced HIV transcripts (TatRev) (Fig 1B)” value in data set [1] (study participant 152) is on record as 263.16 % of activated DMSO. Besides, the “Viability (Fig 1A)” value in the data set with PBMCs (study participant 150a) is listed as 103.1 % of activated DMSO. Also, the “Viability (Fig 1A)” value in the data set on PBMCs (study participant 152) is 97.61 % of activated DMSO.

Consider `CC(=O)Oc1ccccc1C(=O)O` [aspirin], for which the “Effect on HIV transcripts” value in data set [1] is listed as “did not observe much reduction”. In addition, the entries for the “Viability (Fig 1A)” value in the data set with PBMCs (study participant 150a) and in the data set on PBMCs (study participant 152) were 99.56 % of activated DMSO and 95.5 % of activated DMSO, respectively.

As to `COc1cc(F)ccc1-c1ncnc(Nc2cccc(C[S@](C)(=N)=O)c2)n1` [atuveciclib], the “Multiply spliced (TatRev) HIV transcripts, median relative to activated DMSO, initial screening” value in data set [1] came out at 46%. Moreover, the “Viability (Fig 1A)” value in the data set with PBMCs (study participant 150a) is 108.3 % of activated DMSO; in the data set on PBMCs (study participant 152) it was 95.7 % of activated DMSO.

In the case of `Nc1ncnc2c1ncn2[C@@H]1O[C@H](CO)C[C@H]1O` [cordycepin], the “Effect on HIV transcripts” value in data set [1] is given as “did not observe any reduction”. In addition, the “Viability (Fig 1A)” value in the data set on PBMCs (study participant 150a) is reported as 101.9 % of activated DMSO; with PBMCs (study participant 152), 92.02 % of activated DMSO.

On to `C[C@H]1O[C@@H](O[C@H]2[C@@H](O)C[C@H](O[C@H]3[C@@H](O)C[C@H](O[C@H]4CC[C@@]5(C)[C@H](CC[C@@H]6[C@@H]5C[C@@H](O)[C@]5(C)[C@@H](C7=CC(=O)OC7)CC[C@]65O)C4)O[C@@H]3C)O[C@@H]2C)C[C@H](O)[C@@H]1O` [digoxin], for which the mrna remaining at 0.0025 µM in data set [1] (Human immunodeficiency virus 1, PBMC, 24 h, 2.5nM, 24 h after αCD3/28 activation, each column one participant, read-out: PolyA HIV transcripts (DMSO+αCD3/28 = 100)) was found to be 87%. For the same compound, the “Effect on HIV transcripts” value in data set [1] was “did not observe decreases”. In addition, the “Viability (Fig 1A)” value is 98.44 % of activated DMSO in the data set with PBMCs (study participant 150a) and 105.27 % of activated DMSO in the data set with PBMCs (study participant 152).

Consider `Cn1cc(C2=C(c3cn(C4CCN(Cc5ccccn5)CC4)c4ccccc34)C(=O)NC2=O)c2ccccc21` [enzastaurin], for which the “Viability (Fig 1A)” value in the data set with PBMCs (study participant 150a) is given as 100.98 % of activated DMSO; in the data set with PBMCs (study participant 152), 98.98 % of activated DMSO.

For the compound `Nc1ccc(O)c(C(=O)O)c1` [mesalamine], in data set [1], the “Effect on HIV transcripts” value is given as “did not observe any reduction”. The entries for the “Viability (Fig 1A)” value in the data set with PBMCs (study participant 150a) and in the data set with PBMCs (study participant 152) were 102.78 % of activated DMSO and 98.77 % of activated DMSO, respectively.

With `Oc1ccc(/C=C/c2cc(O)cc(O)c2)cc1` [resveratrol], the “Viability (Fig 1A)” value with PBMCs (study participant 150a) is on record as 102.48 % of activated DMSO; with PBMCs (study participant 152), 91.76 % of activated DMSO.

As to `CN1CCN(c2nc(C3=C(c4c[nH]c5ccccc45)C(=O)NC3=O)c3ccccc3n2)CC1` [sotrastaurin], the mrna remaining at 0.1 µM in data set [1] (Human immunodeficiency virus 1, PBMC, 24 h, 24 h after αCD3/28 activation, each column one participant, read-out: LLTR HIV transcripts (DMSO+αCD3/28 = 100)) was determined as 99.4%; in data set [1] (Human immunodeficiency virus 1, PBMC, 24 h, 24 h after αCD3/28 activation, each column one participant, read-out: Pol HIV transcripts (DMSO+αCD3/28 = 100)), 51.5%; in data set [1] (Human immunodeficiency virus 1, PBMC, 24 h, 24 h after αCD3/28 activation, each column one participant, read-out: PolyA HIV transcripts (DMSO+αCD3/28 = 100)), 39.3%. In addition, in data set [1], the “Completed (PolyA) HIV transcripts, median relative to activated DMSO, initial screening” value worked out at 41%. The figures for the “Viability (Fig 1A)” value in the data set with PBMCs (study participant 150a) and in the data set on PBMCs (study participant 152) were 103.88 % of activated DMSO and 98.33 % of activated DMSO, respectively.

As to `CC(=O)S[C@@H]1CC2=CC(=O)CC[C@]2(C)[C@H]2CC[C@@]3(C)[C@@H](CC[C@@]34CCC(=O)O4)[C@H]12` [spironolactone], the “Effect on HIV transcripts” value in data set [1] is “little reduction”. The figures for the “Viability (Fig 1A)” value in the data set on PBMCs (study participant 150a) and with PBMCs (study participant 152) were 102.53 % of activated DMSO and 102.65 % of activated DMSO, respectively.

Take `CN[C@@H]1C[C@H]2O[C@@](C)([C@@H]1OC)n1c3ccccc3c3c4c(c5c6ccccc6n2c5c31)C(=O)NC4` [staurosporine]: in data set [1], the “Completed (PolyA) HIV transcripts, median relative to activated DMSO, initial screening” value is listed as 41%. Besides, the results for the “Viability (Fig 1A)” value with PBMCs (study participant 150a) and with PBMCs (study participant 152) were 109.29 % of activated DMSO and 100.37 % of activated DMSO, respectively.
